Data reported in patent US20160090556A1, “PRODUCTS COMPRISING MALODOR REDUCTION MATERIALS” (The Procter & Gamble Company, priority 2014, published 2016).
Read-outs that look alike come from different tables or passages of the source.

Experiments:
[1] = Liquid dish neat product liquid-air partition coefficient; type: physicochemical
[2] = Probability of Ingredient Color Instability; type: physicochemical
[3] = class code letter within Comment Code

Compound	Log of liquid dish neat product liquid-air partition coefficient (Comment Code K/L) [1, 3]	Probability of Ingredient Color Instability (Comment Code E/F) [2, 3]	Log of liquid dish neat product liquid-air partition coefficient (Comment Code K/L) [1]	Probability of Ingredient Color Instability (Comment Code E/F) [2]	also measured
CC1=CCC(C(C)CC=O)CC1 (stereo not drawn) [Material 159]	K (Log of liquid dish neat product liquid-air partition coefficient greater than or equal to −7)	F (Probability of Ingredient Color Instability<71%)	–	–	–
COC(C)(C)CCCC(C)CC=O (stereo not drawn) [Material 126]	K (Log of liquid dish neat product liquid-air partition coefficient greater than or equal to −7)	F (Probability of Ingredient Color Instability<71%)	–	–	–
CC(C)(C=O)CC1=CCC2CC1C2(C)C (stereo not drawn) [Material 925]	–	–	K (Log of liquid dish neat product liquid-air partition coefficient greater than or equal to −7)	F (Probability of Ingredient Color Instability<71%)	–
CC(C)=CCCC1=CCC(C=O)CC1 (stereo not drawn) [Material 211]	K (Log of liquid dish neat product liquid-air partition coefficient greater than or equal to −7)	F (Probability of Ingredient Color Instability<71%)	–	–	–
CCCCCCCCCC(C)C=O (stereo not drawn) [Material 103]	K (Log of liquid dish neat product liquid-air partition coefficient greater than or equal to −7)	F (Probability of Ingredient Color Instability<71%)	–	–	–
C=C(C)C1CC=C(COC(C)=O)CC1 (stereo not drawn) [Material 947]	–	–	K (Log of liquid dish neat product liquid-air partition coefficient greater than or equal to −7)	F (Probability of Ingredient Color Instability<71%)	–
CC(C)=CCCC(C)CCCC(C)C=O (stereo not drawn) [Material 757]	–	–	K (Log of liquid dish neat product liquid-air partition coefficient greater than or equal to −7)	F (Probability of Ingredient Color Instability<71%)	–
CCCCCCCCCCCCCC=O [Material 36]	K (Log of liquid dish neat product liquid-air partition coefficient greater than or equal to −7)	F (Probability of Ingredient Color Instability<71%)	–	–	–
CC1=C2CCC3(C)OC3C2C(C)(C)CCC1 (stereo not drawn) [Material 624]	–	–	K (Log of liquid dish neat product liquid-air partition coefficient greater than or equal to −7)	F (Probability of Ingredient Color Instability<71%)	Comment Code: Log of liquid dish neat product liquid-air partition coefficient ([1]; code letters K, L): K (Log of liquid dish neat product liquid-air partition coefficient greater than or equal to −7)
C=CC(C)CC/C=C(\C)CCC=O (stereo not drawn) [Material 358]	K (Log of liquid dish neat product liquid-air partition coefficient greater than or equal to −7)	F (Probability of Ingredient Color Instability<71%)	–	–	–
CC1=C2CC(C(C)(C)O)CCC2(C)CCC1 (stereo not drawn) [Material 329]	K (Log of liquid dish neat product liquid-air partition coefficient greater than or equal to −7)	F (Probability of Ingredient Color Instability<71%)	–	–	Comment Code: Log of liquid dish neat product liquid-air partition coefficient ([1]; code letters K, L): K (Log of liquid dish neat product liquid-air partition coefficient greater than or equal to −7)
CC(C)=CCCC(C)(O)C1CC=C(C)CC1 (stereo not drawn) [Material 718]	–	–	K (Log of liquid dish neat product liquid-air partition coefficient greater than or equal to −7)	F (Probability of Ingredient Color Instability<71%)	–
CC=CC(=O)OC(C)C1CCCCC1 (stereo not drawn) [Material 475]	K (Log of liquid dish neat product liquid-air partition coefficient greater than or equal to −7)	F (Probability of Ingredient Color Instability<71%)	–	–	–
O=CCCC=C1CC2CC1C1CCCC21 (stereo not drawn) [Material 418]	K (Log of liquid dish neat product liquid-air partition coefficient greater than or equal to −7)	F (Probability of Ingredient Color Instability<71%)	–	–	–
C=CCc1ccc(OC(C)=O)c(OC)c1 [Material 374]	K (Log of liquid dish neat product liquid-air partition coefficient greater than or equal to −7)	F (Probability of Ingredient Color Instability<71%)	–	–	–
CC(CC=O)CCc1ccccc1 (stereo not drawn) [Material 807]	–	–	K (Log of liquid dish neat product liquid-air partition coefficient greater than or equal to −7)	F (Probability of Ingredient Color Instability<71%)	–
CC1(C)C2CC=C(CCC=O)C1C2 (stereo not drawn) [Material 781]	–	–	K (Log of liquid dish neat product liquid-air partition coefficient greater than or equal to −7)	F (Probability of Ingredient Color Instability<71%)	–
CCCCCCC(CO)C(C)=O (stereo not drawn) [Material 106]	K (Log of liquid dish neat product liquid-air partition coefficient greater than or equal to −7)	F (Probability of Ingredient Color Instability<71%)	–	–	–
CCCCCCC/C=C\CCC=O [Material 1045]	–	–	K (Log of liquid dish neat product liquid-air partition coefficient greater than or equal to −7)	F (Probability of Ingredient Color Instability<71%)	–
CC1CCC2(O1)C(C)(C)CCCC2(C)O (stereo not drawn) [Material 893]	–	–	K (Log of liquid dish neat product liquid-air partition coefficient greater than or equal to −7)	F (Probability of Ingredient Color Instability<71%)	–
CCCCCCCCCCCC=O [Material 178]	K (Log of liquid dish neat product liquid-air partition coefficient greater than or equal to −7)	F (Probability of Ingredient Color Instability<71%)	–	–	–
CC(C=O)=CCC1C(C)=CCCC1(C)C (stereo not drawn) [Material 1116]	–	–	–	–	Comment Code: Log of liquid dish neat product liquid-air partition coefficient ([1]; codes K/L of the Comment Code, Table 1): K (Log of liquid dish neat product liquid-air partition coefficient greater than or equal to −7); Comment Code: Probability of Ingredient Color Instability ([2]; codes E/F of the Comment Code, Table 1): F (Probability of Ingredient Color Instability<71%)
CC(C)=CCCC1=CCC(C)(C=O)CC1 (stereo not drawn) [Material 988]	–	–	K (Log of liquid dish neat product liquid-air partition coefficient greater than or equal to −7)	F (Probability of Ingredient Color Instability<71%)	–
